Source: patent US20080009418A1, “Selective Inhibitors” (Alchemia LTD., priority 2004, published 2008)

Columns and labels:
Human Melanocortin (MC3) = target: T1, Human Melanocortin (MC3) (Homo sapiens, UniProt P41968); experiment: Radioligand binding, human melanocortin MC3 membranes, FlashPlate, [125I]-NDP-αMSH; settings: compound at 10 μM, [125I]-NDP-αMSH; for A3: inhibition of radioligand binding: FlashPlate
T1 construct: purchased Perkin Elmer Biosignal
Summary of the method: (§1)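 Cloned human receptor membranes were coated onto FlashPlate wells and incubated with radioligand and compound (added from a 0.5 mM DMSO daughter plate) for 1 hour at room temperature in the dark. Scintillation counting gave percent inhibition, with DMSO defining total and reference ligand defining non-specific binding.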

Human opioid (ORL1) = target: T2, Human opioid (ORL1) (Homo sapiens, UniProt P41146); experiment: Radioligand binding, human opioid ORL1 membranes, FlashPlate, [125I]-Nociceptin; settings: compound at 10 μM, [125I]-Nociceptin; for A10: inhibition of radioligand binding: FlashPlate
T2 construct: purchased Perkin Elmer Biosignal
T2 sequence (P41146 whole entry): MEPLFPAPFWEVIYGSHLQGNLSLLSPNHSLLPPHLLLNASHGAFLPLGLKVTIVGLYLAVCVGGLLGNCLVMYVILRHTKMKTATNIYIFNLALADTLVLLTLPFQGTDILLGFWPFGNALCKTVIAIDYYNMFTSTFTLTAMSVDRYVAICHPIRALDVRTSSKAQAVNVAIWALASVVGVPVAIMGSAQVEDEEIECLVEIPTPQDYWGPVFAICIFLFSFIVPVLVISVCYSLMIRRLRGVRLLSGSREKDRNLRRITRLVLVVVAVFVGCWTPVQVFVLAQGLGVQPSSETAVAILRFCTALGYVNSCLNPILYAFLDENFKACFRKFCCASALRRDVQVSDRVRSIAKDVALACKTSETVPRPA
Summary of the method: as §1

[1] = target: T3, Human melanin-concentrating hormone (MCH1) (Homo sapiens, UniProt Q99705); experiment: Radioligand binding, human melanin-concentrating hormone MCH1 membranes, FlashPlate, [125I]-S36057; settings: compound at 10 μM; for A6: inhibition of radioligand binding: [125I]-S36057, FlashPlate
T3 construct: purchased Perkin Elmer Biosignal
T3 sequence (Q99705 whole entry): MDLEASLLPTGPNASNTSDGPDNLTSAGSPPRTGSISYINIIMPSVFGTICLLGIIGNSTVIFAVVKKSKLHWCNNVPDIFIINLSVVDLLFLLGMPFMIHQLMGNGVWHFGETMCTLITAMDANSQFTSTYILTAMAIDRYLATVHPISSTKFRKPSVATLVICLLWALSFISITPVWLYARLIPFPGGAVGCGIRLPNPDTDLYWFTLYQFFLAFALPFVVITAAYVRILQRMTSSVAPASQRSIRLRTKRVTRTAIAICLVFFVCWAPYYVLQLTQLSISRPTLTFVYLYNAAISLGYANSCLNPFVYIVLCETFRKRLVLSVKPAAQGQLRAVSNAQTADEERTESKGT
Summary of the method: as §1

Mouse urotensin (mUR2) = target: T4, Mouse urotensin (mUR2) (Mus musculus, UniProt Q8VIH9); experiment: Radioligand binding, mouse urotensin mUR2 membranes, FlashPlate, [125I]-Urotensin II; settings: compound at 10 μM, [125I]-Urotensin II; for A11: inhibition of radioligand binding: FlashPlate
T4 construct: purchased Perkin Elmer Biosignal
T4 sequence (Q8VIH9 1-385): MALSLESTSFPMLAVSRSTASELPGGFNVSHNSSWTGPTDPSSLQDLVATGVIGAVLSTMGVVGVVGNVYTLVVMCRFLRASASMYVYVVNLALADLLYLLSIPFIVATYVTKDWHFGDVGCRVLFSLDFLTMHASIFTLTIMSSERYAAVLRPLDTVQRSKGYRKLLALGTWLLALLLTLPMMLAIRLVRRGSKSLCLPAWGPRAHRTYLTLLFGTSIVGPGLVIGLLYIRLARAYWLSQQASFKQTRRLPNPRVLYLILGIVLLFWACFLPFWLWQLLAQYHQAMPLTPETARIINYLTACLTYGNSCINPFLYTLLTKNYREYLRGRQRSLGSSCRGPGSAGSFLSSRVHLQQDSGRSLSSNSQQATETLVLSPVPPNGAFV
Summary of the method: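 Cloned mouse urotensin (mUR2) receptor membranes from Perkin Elmer Biosignal were immobilized in FlashPlate microplates using a proprietary coating. Each well got 19.5 μl buffer, then 0.5 μl of DMSO, reference ligand, or compound. Adding 5 μl of [125I]-Urotensin II, diluted to 5× final concentration in binding buffer, started binding. Plates were sealed with TopSeal-A and incubated 1 hour at room temperature in the dark. Wells were counted for 30 seconds each on a TopCount after a 60-second delay, and percentage inhibition was calculated.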

Human Melanocortin (MC4) = target: T5, Human Melanocortin (MC4) (Homo sapiens, UniProt P32245); experiment: Radioligand binding, human melanocortin MC4 membranes, FlashPlate, [125I]-NDP-αMSH; settings: compound at 10 μM, [125I]-NDP-αMSH; for A4: inhibition of radioligand binding: FlashPlate
T5 construct: purchased Perkin Elmer Biosignal
T5 sequence (P32245 whole entry): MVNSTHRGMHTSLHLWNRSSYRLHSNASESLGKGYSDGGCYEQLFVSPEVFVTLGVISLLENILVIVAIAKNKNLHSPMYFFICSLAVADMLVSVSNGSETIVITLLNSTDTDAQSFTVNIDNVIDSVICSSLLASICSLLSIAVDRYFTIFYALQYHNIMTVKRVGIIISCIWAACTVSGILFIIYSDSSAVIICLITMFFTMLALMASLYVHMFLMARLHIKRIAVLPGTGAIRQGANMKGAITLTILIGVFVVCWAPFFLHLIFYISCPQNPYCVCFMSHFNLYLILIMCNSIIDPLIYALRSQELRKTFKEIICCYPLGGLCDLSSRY
Summary of the method: as §1

Human μ-opioid (MOP) = target: T6, Human μ-opioid (MOP) (Homo sapiens, UniProt P35372); experiment: Radioligand binding, human μ-opioid (MOP) membranes, FlashPlate, [3H]-Naloxone; settings: compound at 10 μM, [3H]-Naloxone; for A7: inhibition of radioligand binding: FlashPlate
T6 construct: purchased Perkin Elmer Biosignal
T6 sequence (P35372 whole entry): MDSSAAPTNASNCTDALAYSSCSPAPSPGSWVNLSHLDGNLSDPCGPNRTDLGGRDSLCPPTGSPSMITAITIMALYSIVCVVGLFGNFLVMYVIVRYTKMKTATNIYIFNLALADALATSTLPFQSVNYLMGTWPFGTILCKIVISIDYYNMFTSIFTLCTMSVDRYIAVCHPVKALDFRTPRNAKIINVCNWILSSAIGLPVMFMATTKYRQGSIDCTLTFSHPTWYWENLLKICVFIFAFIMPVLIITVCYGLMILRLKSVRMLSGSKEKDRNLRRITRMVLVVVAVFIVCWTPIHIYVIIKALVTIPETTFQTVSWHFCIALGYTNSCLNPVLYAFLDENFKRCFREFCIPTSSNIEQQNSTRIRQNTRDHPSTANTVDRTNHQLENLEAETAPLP
Summary of the method: as §1

[2] = target: T7, Human neuropeptide Y (NPY-Y1) (Homo sapiens, UniProt P25929); experiment: Radioligand binding, human neuropeptide Y NPY-Y1 membranes, FlashPlate, [125I]-PYY; settings: compound at 10 μM, [125I]-PYY; for A9: inhibition of radioligand binding: FlashPlate
T7 construct: purchased Perkin Elmer Biosignal
T7 sequence (P25929 1-384): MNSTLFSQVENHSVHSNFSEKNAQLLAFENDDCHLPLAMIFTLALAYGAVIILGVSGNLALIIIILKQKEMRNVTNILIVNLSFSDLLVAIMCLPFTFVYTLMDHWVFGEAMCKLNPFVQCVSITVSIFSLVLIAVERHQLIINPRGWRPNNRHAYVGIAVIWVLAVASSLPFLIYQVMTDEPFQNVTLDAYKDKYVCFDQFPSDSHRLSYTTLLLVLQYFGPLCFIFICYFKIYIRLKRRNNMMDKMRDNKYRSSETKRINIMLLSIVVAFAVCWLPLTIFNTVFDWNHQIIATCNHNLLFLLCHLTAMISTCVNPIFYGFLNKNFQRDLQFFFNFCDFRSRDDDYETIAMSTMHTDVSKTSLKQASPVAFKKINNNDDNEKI
Summary of the method: as §1

Human neurokinin (NK1) = target: T8, Human neurokinin (NK1) (Homo sapiens, UniProt P25103); experiment: Radioligand binding, human neurokinin NK1 membranes, filtration, [125I]-Substance P; settings: compound at 10 μM, [125I]-Substance P; for A8: inhibition of radioligand binding: filtration
T8 construct: purchased Perkin Elmer Biosignal
T8 sequence (P25103 whole entry): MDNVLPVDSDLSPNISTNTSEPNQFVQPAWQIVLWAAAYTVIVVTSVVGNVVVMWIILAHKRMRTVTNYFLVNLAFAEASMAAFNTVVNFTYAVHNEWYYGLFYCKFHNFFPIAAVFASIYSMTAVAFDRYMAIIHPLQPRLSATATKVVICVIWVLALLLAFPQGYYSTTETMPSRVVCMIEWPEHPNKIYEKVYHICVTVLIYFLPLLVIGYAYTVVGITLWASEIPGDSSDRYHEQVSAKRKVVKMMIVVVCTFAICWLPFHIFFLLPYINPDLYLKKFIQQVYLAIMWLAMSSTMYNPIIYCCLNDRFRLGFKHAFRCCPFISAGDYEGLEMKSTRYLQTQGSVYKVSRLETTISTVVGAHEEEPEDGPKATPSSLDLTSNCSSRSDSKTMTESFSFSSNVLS
Summary of the method: (§2)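 Filtration binding on cloned human receptor membranes (1 Unit/well), [125I]-Substance P for NK1 and [3H]-Diprenorphine for KOP, 1 h at room temperature. Filters PEI-presoaked, washed with cold 50 mM Tris-HCl pH 7.4, counted by scintillation; percent inhibition calculated, reference ligand defining non-specific binding.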

Human melanocortin (MC5) = target: T9, Human melanocortin (MC5) (Homo sapiens, UniProt P33032); experiment: Radioligand binding, human melanocortin MC5 membranes, FlashPlate, [125I]-NDP-αMSH; settings: compound at 10 μM, [125I]-NDP-αMSH; for A5: inhibition of radioligand binding: FlashPlate
T9 construct: purchased Perkin Elmer Biosignal
T9 sequence (P33032 whole entry): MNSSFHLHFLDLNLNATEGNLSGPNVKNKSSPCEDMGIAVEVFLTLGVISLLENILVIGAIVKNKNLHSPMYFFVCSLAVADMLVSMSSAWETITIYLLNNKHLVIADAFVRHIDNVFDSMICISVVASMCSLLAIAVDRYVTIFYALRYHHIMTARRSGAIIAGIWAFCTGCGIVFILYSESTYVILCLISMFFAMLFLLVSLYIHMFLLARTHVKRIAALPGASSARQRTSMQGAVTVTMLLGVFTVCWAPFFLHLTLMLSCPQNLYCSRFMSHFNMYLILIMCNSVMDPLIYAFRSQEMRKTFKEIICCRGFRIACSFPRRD
Summary of the method: as §1

Human δ-opioid (DOP) = target: T10, Human δ-opioid (DOP) (Homo sapiens, UniProt P41143); experiment: Radioligand binding, human δ-opioid (DOP) membranes, FlashPlate, [3H]-Bremazocine; settings: compound at 10 μM, [3H]-Bremazocine; for A1: inhibition of radioligand binding: FlashPlate
T10 construct: purchased Perkin Elmer Biosignal
T10 sequence (P41143 whole entry): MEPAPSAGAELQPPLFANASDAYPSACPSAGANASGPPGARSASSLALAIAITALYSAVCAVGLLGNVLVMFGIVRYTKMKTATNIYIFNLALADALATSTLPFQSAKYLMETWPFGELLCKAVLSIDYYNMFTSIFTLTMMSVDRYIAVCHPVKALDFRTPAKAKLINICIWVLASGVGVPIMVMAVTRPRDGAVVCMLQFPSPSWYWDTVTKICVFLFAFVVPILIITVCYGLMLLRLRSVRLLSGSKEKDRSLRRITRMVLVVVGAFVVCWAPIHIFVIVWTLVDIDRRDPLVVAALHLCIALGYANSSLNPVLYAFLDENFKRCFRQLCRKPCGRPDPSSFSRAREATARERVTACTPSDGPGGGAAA
Summary of the method: as §1

Human κ-Opioid (KOP) = target: T11, Human κ-Opioid (KOP) (Homo sapiens, UniProt P41145); experiment: Radioligand binding, human κ-opioid (KOP) membranes, filtration, [3H]-Diprenorphine; settings: compound at 10 μM, [3H]-Diprenorphine; for A2: inhibition of radioligand binding: filtration
T11 construct: purchased Perkin Elmer Biosignal
T11 sequence (P41145 whole entry): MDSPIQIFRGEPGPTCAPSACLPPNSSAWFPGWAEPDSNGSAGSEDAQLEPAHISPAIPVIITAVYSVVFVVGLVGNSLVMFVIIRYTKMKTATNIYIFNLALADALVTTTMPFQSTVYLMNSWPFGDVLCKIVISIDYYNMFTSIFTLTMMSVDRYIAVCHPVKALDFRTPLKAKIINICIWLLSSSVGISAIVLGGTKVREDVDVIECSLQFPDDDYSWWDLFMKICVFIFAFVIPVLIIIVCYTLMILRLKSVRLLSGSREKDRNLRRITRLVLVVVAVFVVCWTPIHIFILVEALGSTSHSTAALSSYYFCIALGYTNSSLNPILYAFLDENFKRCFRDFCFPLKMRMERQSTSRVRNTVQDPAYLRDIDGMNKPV
Summary of the method: as §2

T1 sequence (P41968 whole entry): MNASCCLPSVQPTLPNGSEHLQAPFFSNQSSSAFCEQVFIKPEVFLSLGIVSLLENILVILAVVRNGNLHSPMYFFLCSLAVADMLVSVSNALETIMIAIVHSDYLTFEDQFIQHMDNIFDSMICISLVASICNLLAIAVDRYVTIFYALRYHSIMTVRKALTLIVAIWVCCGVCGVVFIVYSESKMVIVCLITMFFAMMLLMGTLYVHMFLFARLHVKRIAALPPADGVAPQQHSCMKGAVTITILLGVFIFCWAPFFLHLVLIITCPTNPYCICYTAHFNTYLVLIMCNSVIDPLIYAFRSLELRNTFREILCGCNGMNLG

Row | Compound | A3: inhibition of radioligand binding (Human Melanocortin (MC3)) | A10: inhibition of radioligand binding (Human opioid (ORL1)) | A6: inhibition of radioligand binding [1] | A11: inhibition of radioligand binding (Mouse urotensin (mUR2)) | A4: inhibition of radioligand binding (Human Melanocortin (MC4)) | A7: inhibition of radioligand binding (Human μ-opioid (MOP)) | A9: inhibition of radioligand binding [2] | A8: inhibition of radioligand binding (Human neurokinin (NK1)) | A5: inhibition of radioligand binding (Human melanocortin (MC5)) | A1: inhibition of radioligand binding (Human δ-opioid (DOP)) | A2: inhibition of radioligand binding (Human κ-Opioid (KOP)) | A3: inhibition of radioligand binding, human melanocortin (MC3) (Human Melanocortin (MC3)) | A10: inhibition of radioligand binding, human opioid (ORL1) (Human opioid (ORL1)) | A6: inhibition of radioligand binding, human melanin-concentrating hormone (MCH1) ([1]; [125I]-S36057) | A11: inhibition of radioligand binding, mouse urotensin (mUR2) (Mouse urotensin (mUR2)) | A4: inhibition of radioligand binding, human melanocortin (MC4) (Human Melanocortin (MC4)) | A7: inhibition of radioligand binding, human μ-opioid (MOP) (Human μ-opioid (MOP)) | A9: inhibition of radioligand binding, human neuropeptide Y (NPY-Y1) [2] | A8: inhibition of radioligand binding, human neurokinin (NK1) (Human neurokinin (NK1)) | A5: inhibition of radioligand binding, human melanocortin (MC5) (Human melanocortin (MC5)) | further results
1 | CSC1O[C@H](COCc2ccc(-c3ccccc3)cc2)[C@@H](O)[C@@H](OCc2ccc(Cl)cc2)[C@H]1NC(=O)CCNC(=N)N (stereo partly shown) [compound 277] | + (“+” indicates greater than 50% inhibition at 10 μM) | − (“−” indicates less than 50% inhibition at 10 μM) | − (“−” indicates less than 50% inhibition at 10 μM) | − (“−” indicates less than 50% inhibition at 10 μM) | − (“−” indicates less than 50% inhibition at 10 μM) | − (“−” indicates less than 50% inhibition at 10 μM) | − (“−” indicates less than 50% inhibition at 10 μM) | + (“+” indicates greater than 50% inhibition at 10 μM) | − (“−” indicates less than 50% inhibition at 10 μM) | − (“−” indicates less than 50% inhibition at 10 μM) | − (“−” indicates less than 50% inhibition at 10 μM) |  |  |  |  |  |  |  |  |  | 
2 | COC[C@H]1OC(OCc2ccc3ccccc3c2)[C@H](NC(=O)CCCNC(=N)N)[C@@H](OCc2ccc3ccccc3c2)[C@@H]1O (stereo partly shown) [compound 339] |  |  |  |  |  |  |  |  |  |  |  | − (“−” indicates less than 50% inhibition at 10 μM) | − (“−” indicates less than 50% inhibition at 10 μM) | + (“+” indicates greater than 50% inhibition at 10 μM) | − (“−” indicates less than 50% inhibition at 10 μM) | + (“+” indicates greater than 50% inhibition at 10 μM) | + (“+” indicates greater than 50% inhibition at 10 μM) | − (“−” indicates less than 50% inhibition at 10 μM) | + (“+” indicates greater than 50% inhibition at 10 μM) | + (“+” indicates greater than 50% inhibition at 10 μM) | A1: inhibition of radioligand binding, human δ-opioid (DOP) (Human δ-opioid (DOP)): − (“−” indicates less than 50% inhibition at 10 μM); A2: inhibition of radioligand binding, human κ-opioid (KOP) (Human κ-Opioid (KOP)): − (“−” indicates less than 50% inhibition at 10 μM)
3 | CSC1O[C@H](COCc2ccc3ccccc3c2)[C@@H](O)[C@@H](OCc2ccc(Cl)cc2)[C@H]1NC(=O)CNC(=N)N (stereo partly shown) [compound 281] | + (“+” indicates greater than 50% inhibition at 10 μM) | − (“−” indicates less than 50% inhibition at 10 μM) | − (“−” indicates less than 50% inhibition at 10 μM) | − (“−” indicates less than 50% inhibition at 10 μM) | + (“+” indicates greater than 50% inhibition at 10 μM) | − (“−” indicates less than 50% inhibition at 10 μM) | − (“−” indicates less than 50% inhibition at 10 μM) | + (“+” indicates greater than 50% inhibition at 10 μM) | + (“+” indicates greater than 50% inhibition at 10 μM) | − (“−” indicates less than 50% inhibition at 10 μM) | − (“−” indicates less than 50% inhibition at 10 μM) |  |  |  |  |  |  |  |  |  | 
4 | CSC1O[C@H](COCc2ccccc2)[C@@H](O)[C@@H](OCc2ccc(-c3ccccc3)cc2)[C@H]1NC(=O)CCNC(=N)N (stereo partly shown) [compound 286] |  |  |  |  |  |  |  |  |  |  |  | − (“−” indicates less than 50% inhibition at 10 μM) | − (“−” indicates less than 50% inhibition at 10 μM) | − (“−” indicates less than 50% inhibition at 10 μM) | − (“−” indicates less than 50% inhibition at 10 μM) | − (“−” indicates less than 50% inhibition at 10 μM) | − (“−” indicates less than 50% inhibition at 10 μM) | − (“−” indicates less than 50% inhibition at 10 μM) | + (“+” indicates greater than 50% inhibition at 10 μM) | + (“+” indicates greater than 50% inhibition at 10 μM) | A1: inhibition of radioligand binding, human δ-opioid (DOP) (Human δ-opioid (DOP)): − (“−” indicates less than 50% inhibition at 10 μM); A2: inhibition of radioligand binding, human κ-opioid (KOP) (Human κ-Opioid (KOP)): − (“−” indicates less than 50% inhibition at 10 μM)
5 | COCC1OC(OCc2ccccc2)C(NC(=O)CCN)C(OCc2ccccc2)C1O (stereo not shown) [compound 172] |  |  |  |  |  |  |  |  |  |  |  |  |  |  |  |  |  |  |  |  | A3 radioligand binding, percentage inhibition (Human Melanocortin (MC3)): − (“−” indicates less than 50% inhibition at 10 μM); A10 radioligand binding, percentage inhibition (Human opioid (ORL1)): − (“−” indicates less than 50% inhibition at 10 μM); A6 radioligand binding, percentage inhibition ([1]; [125I]-S36057): − (“−” indicates less than 50% inhibition at 10 μM); A11 radioligand binding, percentage inhibition (Mouse urotensin (mUR2)): − (“−” indicates less than 50% inhibition at 10 μM); A4 radioligand binding, percentage inhibition (Human Melanocortin (MC4)): − (“−” indicates less than 50% inhibition at 10 μM); A7 radioligand binding, percentage inhibition (Human μ-opioid (MOP)): − (“−” indicates less than 50% inhibition at 10 μM); A9 radioligand binding, percentage inhibition [2]: − (“−” indicates less than 50% inhibition at 10 μM); A8 radioligand binding, percentage inhibition (Human neurokinin (NK1)): + (“+” indicates greater than 50% inhibition at 10 μM); A5 radioligand binding, percentage inhibition (Human melanocortin (MC5)): − (“−” indicates less than 50% inhibition at 10 μM); A1 radioligand binding, percentage inhibition (Human δ-opioid (DOP)): − (“−” indicates less than 50% inhibition at 10 μM); A2 radioligand binding, percentage inhibition (Human κ-Opioid (KOP)): − (“−” indicates less than 50% inhibition at 10 μM)
